The source made the active and inactive calls. The rule behind the calls is not given here.
How the values were obtained:
[1] = target: Muscarinic acetylcholine receptor M3 (Homo sapiens) (UniProt P20309); test: Binding affinity to muscarinic M3 (unknown origin) 10 umol/L by radioligand binding assay; settings: dose 10.0 µmol/L
[2] = target: Type-2 angiotensin II receptor (Homo sapiens) (UniProt P50052); test: Binding affinity to AT2 receptor (unknown origin) 10 umol/L by radioligand binding assay; settings: dose 10.0 µmol/L
[3] = target: Androgen receptor (Homo sapiens) (UniProt P10275); test: Binding affinity to androgen receptor (unknown origin) 10 umol/L by radioligand binding assay; settings: dose 10.0 µmol/L
[4] = target: Cannabinoid receptor 1 (Homo sapiens) (UniProt P21554); test: Binding affinity to CB1 (unknown origin) 10 umol/L by radioligand binding assay; settings: dose 10.0 µmol/L
Homo sapiens [5] = species: Homo sapiens; test: Binding affinity to Voltage-dependent N-type calcium channel (unknown origin) 10 umol/L by radioligand binding assay; settings: dose 10.0 µmol/L
[6] = target: Prostaglandin E2 receptor EP2 subtype (Homo sapiens) (UniProt P43116); test: Binding affinity to Prostanoid EP2 receptor (unknown origin) 10 umol/L by radioligand binding assay; settings: dose 10.0 µmol/L
[7] = target: Nociceptin receptor (Homo sapiens) (UniProt P41146); test: Binding affinity to ORL1 receptor (unknown origin) 10 umol/L by radioligand binding assay; settings: dose 10.0 µmol/L
[8] = target: Vasopressin V1b receptor (Homo sapiens) (UniProt P47901); test: Binding affinity to Vasopressin V1b receptor (unknown origin) 10 umol/L by radioligand binding assay; settings: dose 10.0 µmol/L
[9] = Lipophilicity, logD of compound in n-octanol and phosphate buffered saline at 2 mg after 1.5 hrs by HPLC based shake flask method; type: physicochemical
Homo sapiens [10] = species: Homo sapiens; test: Binding affinity to Imidazole receptor (unknown origin) 10 umol/L by radioligand binding assay; settings: dose 10.0 µmol/L
[11] = target: Alpha-1B adrenergic receptor (Homo sapiens) (UniProt P35368); test: Binding affinity to alpha1B adrenoreceptor (unknown origin) 10 umol/L by radioligand binding assay; settings: dose 10.0 µmol/L
[12] = target: D(1A) dopamine receptor (Homo sapiens) (UniProt P21728); test: Binding affinity to D1 receptor (unknown origin) 10 umol/L by radioligand binding assay; settings: dose 10.0 µmol/L
[13] = target: Vasopressin V2 receptor (Homo sapiens) (UniProt P30518); test: Binding affinity to Vasopressin V2 receptor (unknown origin) 10 umol/L by radioligand binding assay; settings: dose 10.0 µmol/L
[14] = target: 5-hydroxytryptamine receptor 3A (Homo sapiens) (UniProt P46098); test: Binding affinity to 5-HT3 receptor (unknown origin) 10 umol/L by radioligand binding assay; settings: dose 10.0 µmol/L
[15] = target: Sodium-dependent dopamine transporter (Homo sapiens) (UniProt Q01959); test: Binding affinity to dopamine transporter (unknown origin) 10 umol/L by radioligand binding assay; settings: dose 10.0 µmol/L
[16] = target: Sigma non-opioid intracellular receptor 1 (Homo sapiens) (UniProt Q99720); test: Binding affinity to sigma1 receptor (unknown origin) 10 umol/L by radioligand binding assay; settings: dose 10.0 µmol/L
[17] = target: Muscarinic acetylcholine receptor M4 (Homo sapiens) (UniProt P08173); test: Binding affinity to muscarinic M4 (unknown origin) 10 umol/L by radioligand binding assay; settings: dose 10.0 µmol/L
[18] = target: Beta-2 adrenergic receptor (Homo sapiens) (UniProt P07550); test: Binding affinity to beta2 adrenoreceptor (unknown origin) 10 umol/L by radioligand binding assay; settings: dose 10.0 µmol/L
[19] = target: Neuromedin-K receptor (Homo sapiens) (UniProt P29371); test: Binding affinity to NK3 receptor (unknown origin) 10 umol/L by radioligand binding assay; settings: dose 10.0 µmol/L
[20] = target: Alpha-2B adrenergic receptor (Homo sapiens) (UniProt P18089); test: Binding affinity to alpha2B adrenoreceptor (unknown origin) 10 umol/L by radioligand binding assay; settings: dose 10.0 µmol/L
Homo sapiens [21] = species: Homo sapiens; test: Binding affinity to NMDA receptor glycine site (unknown origin) 10 umol/L by radioligand binding assay; settings: dose 10.0 µmol/L
[22] = target: Voltage-gated L-type calcium channel (Homo sapiens, UniProt Q13936+Q13698+Q01668+O60840); test: Binding affinity to Voltage-dependent L-type calcium channel phenylalkylamine site (unknown origin) 10 umol/L by radioligand binding assay; type: protein assay; settings: 10 µM, dose 10 µmol/L
Homo sapiens [23] = species: Homo sapiens; test: Binding affinity to NMDA receptor agonist site (unknown origin) 10 umol/L by radioligand binding assay; settings: dose 10.0 µmol/L
[24] = target: Type-1 angiotensin II receptor (Homo sapiens) (UniProt P30556); test: Binding affinity to AT1 receptor (unknown origin) 10 umol/L by radioligand binding assay; settings: dose 10.0 µmol/L
[25] = target: Cholecystokinin receptor type A (Homo sapiens) (UniProt P32238); test: Binding affinity to CCKA (unknown origin) 10 umol/L by radioligand binding assay; settings: dose 10.0 µmol/L
[26] = target: Kappa-type opioid receptor (Homo sapiens) (UniProt P41145); test: Binding affinity to kappa receptor (unknown origin) 10 umol/L by radioligand binding assay; settings: dose 10.0 µmol/L
Homo sapiens [27] = species: Homo sapiens; test: Binding affinity to adenosine transporter (unknown origin) at 10 umol/L by radioligand binding assay; settings: dose 10.0 µmol/L
[28] = target: Adenosine receptor A2a (Homo sapiens) (UniProt P29274); test: Binding affinity to A2a receptor (unknown origin) at 10 umol/L by radioligand binding assay; settings: dose 10.0 µmol/L
[29] = target: Adenosine receptor A1 (Homo sapiens) (UniProt P30542); test: Binding affinity to A1 receptor (unknown origin) at 10 umol/L by radioligand binding assay; settings: dose 10.0 µmol/L
Homo sapiens [30] = species: Homo sapiens; test: Binding affinity to GABA transporter (unknown origin) 10 umol/L by radioligand binding assay; settings: dose 10.0 µmol/L
[31] = target: Melatonin receptor type 1A (Homo sapiens) (UniProt P48039); test: Binding affinity to MT1 receptor (unknown origin) 10 umol/L by radioligand binding assay; settings: dose 10.0 µmol/L
[32] = target: Metabotropic glutamate receptor 3 (Homo sapiens, UniProt Q14832); test: Agonist activity at human mGlu3 receptor expressed in CHO cell membranes by GTPgammaS binding assay relative to control; type: functional
[33] = target: Substance-P receptor (Homo sapiens) (UniProt P25103); test: Binding affinity to NK1 receptor (unknown origin) 10 umol/L by radioligand binding assay; settings: dose 10.0 µmol/L
[34] = target: Sodium-dependent serotonin transporter (Homo sapiens) (UniProt P31645); test: Inhibition of serotonin transporter (unknown origin) 10 umol/L by radioligand binding assay relative to control; settings: dose 10.0 µmol/L
[35] = target: Cannabinoid receptor 2 (Homo sapiens) (UniProt P34972); test: Binding affinity to CB2 (unknown origin) 10 umol/L by radioligand binding assay; settings: dose 10.0 µmol/L
[36] = target: Neurotensin receptor type 1 (Homo sapiens) (UniProt P30989); test: Binding affinity to NT1 receptor (unknown origin) 10 umol/L by radioligand binding assay; settings: dose 10.0 µmol/L
[37] = target: Histamine H3 receptor (Homo sapiens) (UniProt Q9Y5N1); test: Binding affinity to H3 receptor (unknown origin) 10 umol/L by radioligand binding assay; settings: dose 10.0 µmol/L
[38] = target: Endothelin-1 receptor (Homo sapiens) (UniProt P25101); test: Binding affinity to ETA receptor (unknown origin) 10 umol/L by radioligand binding assay; settings: dose 10.0 µmol/L
[39] = target: B1 bradykinin receptor (Homo sapiens) (UniProt P46663); test: Binding affinity to B1 receptor (unknown origin) 10 umol/L by radioligand binding assay; settings: dose 10.0 µmol/L
[40] = target: Histamine H2 receptor (Homo sapiens) (UniProt P25021); test: Binding affinity to H2 receptor (unknown origin) 10 umol/L by radioligand binding assay; settings: dose 10.0 µmol/L
[41] = target: Neuropeptide Y receptor type 1 (Homo sapiens) (UniProt P25929); test: Binding affinity to Y1 receptor (unknown origin) 10 umol/L by radioligand binding assay; settings: dose 10.0 µmol/L

Substance-P receptor (Homo sapiens), sequence (P25103 whole entry): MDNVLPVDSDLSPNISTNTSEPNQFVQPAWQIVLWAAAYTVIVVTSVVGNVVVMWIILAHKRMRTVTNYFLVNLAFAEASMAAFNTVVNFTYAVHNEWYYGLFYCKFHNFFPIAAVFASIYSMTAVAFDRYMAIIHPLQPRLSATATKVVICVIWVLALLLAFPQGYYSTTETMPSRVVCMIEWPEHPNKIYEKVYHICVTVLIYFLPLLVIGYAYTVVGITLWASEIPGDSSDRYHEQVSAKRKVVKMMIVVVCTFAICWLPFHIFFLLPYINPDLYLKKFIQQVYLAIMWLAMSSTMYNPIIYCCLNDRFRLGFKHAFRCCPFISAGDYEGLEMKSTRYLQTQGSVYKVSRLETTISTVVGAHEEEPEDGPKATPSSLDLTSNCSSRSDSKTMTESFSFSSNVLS
Vasopressin V2 receptor (Homo sapiens), sequence (P30518 whole entry): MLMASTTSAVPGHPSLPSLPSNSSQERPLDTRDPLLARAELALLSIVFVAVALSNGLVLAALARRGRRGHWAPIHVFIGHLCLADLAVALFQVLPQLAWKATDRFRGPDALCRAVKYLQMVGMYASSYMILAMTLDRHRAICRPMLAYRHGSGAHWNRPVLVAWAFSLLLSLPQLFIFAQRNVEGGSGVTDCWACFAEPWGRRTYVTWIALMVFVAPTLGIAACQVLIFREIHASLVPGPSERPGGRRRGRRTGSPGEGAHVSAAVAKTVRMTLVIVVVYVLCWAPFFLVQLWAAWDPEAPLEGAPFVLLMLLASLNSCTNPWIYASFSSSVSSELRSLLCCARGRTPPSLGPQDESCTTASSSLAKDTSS
Alpha-2B adrenergic receptor (Homo sapiens), sequence (P18089 whole entry): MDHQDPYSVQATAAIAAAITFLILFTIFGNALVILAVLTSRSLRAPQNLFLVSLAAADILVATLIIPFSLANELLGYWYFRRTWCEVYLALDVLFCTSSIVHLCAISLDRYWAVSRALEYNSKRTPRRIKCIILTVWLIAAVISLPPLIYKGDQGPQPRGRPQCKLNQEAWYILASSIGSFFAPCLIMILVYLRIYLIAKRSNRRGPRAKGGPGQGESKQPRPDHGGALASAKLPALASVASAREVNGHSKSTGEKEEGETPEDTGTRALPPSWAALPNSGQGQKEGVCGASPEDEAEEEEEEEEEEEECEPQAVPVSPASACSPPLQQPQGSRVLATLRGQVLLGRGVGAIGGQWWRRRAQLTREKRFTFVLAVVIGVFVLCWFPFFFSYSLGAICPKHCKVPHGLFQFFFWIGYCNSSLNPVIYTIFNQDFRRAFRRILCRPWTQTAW
Endothelin-1 receptor (Homo sapiens), sequence (P25101 whole entry): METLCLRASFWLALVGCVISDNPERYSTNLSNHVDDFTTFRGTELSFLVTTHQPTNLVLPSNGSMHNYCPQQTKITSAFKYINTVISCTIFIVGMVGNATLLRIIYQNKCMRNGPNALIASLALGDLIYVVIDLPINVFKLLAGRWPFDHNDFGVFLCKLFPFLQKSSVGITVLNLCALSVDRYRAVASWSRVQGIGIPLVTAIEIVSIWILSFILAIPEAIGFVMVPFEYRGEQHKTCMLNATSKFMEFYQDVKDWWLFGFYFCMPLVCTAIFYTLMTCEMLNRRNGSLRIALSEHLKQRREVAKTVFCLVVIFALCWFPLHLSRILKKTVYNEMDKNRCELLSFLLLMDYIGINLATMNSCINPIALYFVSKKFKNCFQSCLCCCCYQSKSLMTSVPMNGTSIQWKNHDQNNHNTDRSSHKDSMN
Type-1 angiotensin II receptor (Homo sapiens), sequence (P30556 whole entry): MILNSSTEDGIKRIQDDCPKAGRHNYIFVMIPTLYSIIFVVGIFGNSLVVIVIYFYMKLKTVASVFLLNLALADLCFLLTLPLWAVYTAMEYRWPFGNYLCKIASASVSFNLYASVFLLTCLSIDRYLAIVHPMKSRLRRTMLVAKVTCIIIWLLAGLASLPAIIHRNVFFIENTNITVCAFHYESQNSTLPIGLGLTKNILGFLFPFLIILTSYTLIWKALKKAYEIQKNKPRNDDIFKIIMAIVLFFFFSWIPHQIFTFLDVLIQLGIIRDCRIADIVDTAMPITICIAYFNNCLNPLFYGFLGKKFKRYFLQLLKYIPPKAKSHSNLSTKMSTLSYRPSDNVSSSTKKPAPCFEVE
Melatonin receptor type 1A (Homo sapiens), sequence (P48039 whole entry): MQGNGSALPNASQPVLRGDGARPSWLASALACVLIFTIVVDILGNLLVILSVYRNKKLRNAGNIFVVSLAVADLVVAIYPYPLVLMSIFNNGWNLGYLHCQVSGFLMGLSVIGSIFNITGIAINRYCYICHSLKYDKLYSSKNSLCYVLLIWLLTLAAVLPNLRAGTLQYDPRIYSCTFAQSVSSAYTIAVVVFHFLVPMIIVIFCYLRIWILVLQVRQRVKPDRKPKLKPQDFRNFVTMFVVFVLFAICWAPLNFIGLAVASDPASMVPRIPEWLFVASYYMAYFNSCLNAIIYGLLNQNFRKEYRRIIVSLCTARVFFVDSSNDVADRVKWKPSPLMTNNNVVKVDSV
Muscarinic acetylcholine receptor M4 (Homo sapiens), sequence (P08173 whole entry): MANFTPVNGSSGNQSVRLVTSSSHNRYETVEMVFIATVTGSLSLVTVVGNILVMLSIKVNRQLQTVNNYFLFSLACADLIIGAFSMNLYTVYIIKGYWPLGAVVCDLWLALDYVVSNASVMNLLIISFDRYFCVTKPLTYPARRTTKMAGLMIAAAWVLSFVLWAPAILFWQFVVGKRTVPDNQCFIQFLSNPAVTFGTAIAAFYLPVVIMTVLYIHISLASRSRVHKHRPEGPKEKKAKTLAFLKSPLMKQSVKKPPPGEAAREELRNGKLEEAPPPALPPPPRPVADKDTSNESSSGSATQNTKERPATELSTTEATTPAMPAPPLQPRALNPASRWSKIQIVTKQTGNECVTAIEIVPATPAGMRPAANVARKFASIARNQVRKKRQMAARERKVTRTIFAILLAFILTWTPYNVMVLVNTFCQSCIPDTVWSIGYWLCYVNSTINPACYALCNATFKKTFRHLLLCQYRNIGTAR
Androgen receptor (Homo sapiens), sequence (P10275 whole entry): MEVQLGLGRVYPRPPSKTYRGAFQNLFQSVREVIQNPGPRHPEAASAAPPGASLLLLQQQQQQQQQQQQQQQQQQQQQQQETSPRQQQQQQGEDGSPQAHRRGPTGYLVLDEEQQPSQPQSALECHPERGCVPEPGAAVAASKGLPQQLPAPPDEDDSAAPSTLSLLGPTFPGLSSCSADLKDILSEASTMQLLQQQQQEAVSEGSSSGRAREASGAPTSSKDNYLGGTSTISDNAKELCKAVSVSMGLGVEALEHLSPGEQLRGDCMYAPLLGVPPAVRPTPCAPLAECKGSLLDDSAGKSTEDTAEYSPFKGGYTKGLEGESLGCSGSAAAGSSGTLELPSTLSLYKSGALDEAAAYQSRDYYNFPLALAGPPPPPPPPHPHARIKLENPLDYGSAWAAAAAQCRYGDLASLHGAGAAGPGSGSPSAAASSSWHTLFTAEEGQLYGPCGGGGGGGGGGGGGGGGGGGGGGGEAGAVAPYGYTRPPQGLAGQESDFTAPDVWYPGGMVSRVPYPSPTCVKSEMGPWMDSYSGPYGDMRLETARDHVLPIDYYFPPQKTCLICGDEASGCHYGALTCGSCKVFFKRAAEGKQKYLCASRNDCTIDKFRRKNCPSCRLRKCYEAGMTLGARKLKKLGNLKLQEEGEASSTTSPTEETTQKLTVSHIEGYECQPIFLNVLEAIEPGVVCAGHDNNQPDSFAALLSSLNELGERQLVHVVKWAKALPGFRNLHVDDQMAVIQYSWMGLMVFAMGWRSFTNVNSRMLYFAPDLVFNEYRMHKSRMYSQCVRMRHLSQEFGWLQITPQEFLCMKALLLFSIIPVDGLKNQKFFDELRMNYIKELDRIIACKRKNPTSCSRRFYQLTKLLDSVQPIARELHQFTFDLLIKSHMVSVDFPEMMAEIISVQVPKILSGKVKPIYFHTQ
Adenosine receptor A1 (Homo sapiens), sequence (P30542 whole entry): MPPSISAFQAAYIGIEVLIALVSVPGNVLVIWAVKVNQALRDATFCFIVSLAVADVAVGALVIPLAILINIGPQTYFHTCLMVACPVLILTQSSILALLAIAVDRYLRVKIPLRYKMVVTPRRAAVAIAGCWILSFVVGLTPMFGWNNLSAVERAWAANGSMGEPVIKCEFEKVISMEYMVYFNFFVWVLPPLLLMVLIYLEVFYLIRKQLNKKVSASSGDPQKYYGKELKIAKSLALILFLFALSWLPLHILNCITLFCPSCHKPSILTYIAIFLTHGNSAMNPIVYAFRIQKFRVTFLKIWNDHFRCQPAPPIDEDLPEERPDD
Prostaglandin E2 receptor EP2 subtype (Homo sapiens), sequence (P43116 whole entry): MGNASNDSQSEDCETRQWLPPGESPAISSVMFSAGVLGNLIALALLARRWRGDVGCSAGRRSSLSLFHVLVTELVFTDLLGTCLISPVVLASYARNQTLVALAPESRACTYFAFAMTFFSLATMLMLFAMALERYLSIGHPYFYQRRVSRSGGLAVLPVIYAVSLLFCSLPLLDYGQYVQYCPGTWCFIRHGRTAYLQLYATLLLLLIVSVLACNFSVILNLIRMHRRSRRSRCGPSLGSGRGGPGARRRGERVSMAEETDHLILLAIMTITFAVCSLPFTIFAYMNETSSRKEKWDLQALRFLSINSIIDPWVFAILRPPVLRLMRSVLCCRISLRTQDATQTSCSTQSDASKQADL
Histamine H2 receptor (Homo sapiens), sequence (P25021 whole entry): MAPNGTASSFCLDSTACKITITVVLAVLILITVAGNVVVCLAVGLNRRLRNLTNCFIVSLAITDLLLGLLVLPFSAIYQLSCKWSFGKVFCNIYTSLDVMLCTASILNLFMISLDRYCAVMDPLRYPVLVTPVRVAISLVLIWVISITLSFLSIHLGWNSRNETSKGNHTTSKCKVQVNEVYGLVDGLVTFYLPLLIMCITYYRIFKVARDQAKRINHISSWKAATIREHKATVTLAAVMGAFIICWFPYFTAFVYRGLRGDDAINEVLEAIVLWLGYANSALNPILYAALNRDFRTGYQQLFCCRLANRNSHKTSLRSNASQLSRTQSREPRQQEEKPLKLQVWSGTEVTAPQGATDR

In the case of `N[C@]1(C(=O)O)[C@H]2[C@@H](C[C@@H]1F)[C@@H]2C(=O)O`, the Activity [1] is reported as “inactive”, the Activity [2] is reported as “inactive” and the Activity [3] is reported as “inactive”. The Activity [4] was “inactive”, the Activity (Homo sapiens [5]) was “inactive” and the Activity [6] was “inactive”. The Activity [7] was “inactive”, the Activity [8] was “inactive” and the logD ([9]; 1.5 h) was -4.02. The Activity (Homo sapiens [10]) was “inactive”, the Activity [11] was “inactive” and the Activity [12] was “inactive”. For the same compound, the Activity [13] was “inactive”, the Activity [14] was “inactive” and the Activity [15] was “inactive”. The Activity [16] was “inactive”, the Activity [17] was “inactive” and the Activity [18] was “inactive”. The Activity [19] was “inactive”, the Activity [20] was “inactive” and the Activity (Homo sapiens [21]) was “inactive”. The Activity [22] was “Not Active”, the Activity (Homo sapiens [23]) was “inactive” and the Activity [24] was “inactive”. For the same compound, the Activity [25] was “inactive”, the Activity [26] was “inactive” and the Activity (Homo sapiens [27]) was “inactive”. For the same compound, the Activity [28] was “inactive”, the Activity [29] was “inactive” and the Activity (Homo sapiens [30]) was “inactive”. The Activity [31] was “inactive”, the Emax ([32]; Cell membrane, filed as agonist) was 102% and the Activity [33] was “inactive”. The inhibition [34] was “inactive”, the Activity [35] was “inactive” and the Activity [36] was “inactive”. For the same compound, the Activity [37] was “inactive”, the Activity [38] was “inactive” and the Activity [39] was “inactive”. The Activity [40] was “inactive” and the Activity [41] was “inactive”.
For `CC(C)[C@@H]1CC[C@@H](C)C[C@H]1OC(=O)O[C@@H](C)OC(=O)[C@H]1[C@@H]2C[C@H](F)[C@@](N)(C(=O)O)[C@@H]21`, the Activity [1] was “inactive”, the Activity [2] was “inactive” and the Activity [3] was “inactive”. The Activity [4] was “inactive”, the Activity (Homo sapiens [5]) was “inactive” and the Activity [6] was “inactive”. The Activity [7] was “inactive”, the Activity [8] was “inactive” and the logD at 1.5 h ([9]; n-octanol/phosphate buffered saline) was > 2.04. The Activity (Homo sapiens [10]) was “inactive”, the Activity [11] was “inactive” and the Activity [12] was “inactive”. The Activity [13] was “inactive”, the Activity [14] was “inactive” and the Activity [15] was “inactive”. The Activity [16] was “inactive”, the Activity [17] was “inactive” and the Activity [18] was “inactive”. The Activity [19] was “inactive”, the Activity [20] was “inactive” and the Activity (Homo sapiens [21]) was “inactive”. The Activity [22] was “Not Active”, the Activity (Homo sapiens [23]) was “inactive” and the Activity [24] was “inactive”. For the same compound, the Activity [25] was “inactive”, the Activity [26] was “inactive” and the Activity (Homo sapiens [27]) was “inactive”. For the same compound, the Activity [28] was “inactive”, the Activity [29] was “inactive” and the Activity (Homo sapiens [30]) was “inactive”. For the same compound, the Activity [31] was “inactive”, the EC50 [32] was > 30 µM and the Activity [33] was “inactive”. For the same compound, the inhibition [34] was 76%, the Activity [35] was “inactive” and the Activity [36] was “inactive”. The Activity [37] was “inactive”, the Activity [38] was “inactive” and the Activity [39] was “inactive”. For the same compound, the Activity [40] was “inactive” and the Activity [41] was “inactive”.
